Data taken from ChEMBL document CHEMBL1201862, “PubChem BioAssay data set” (2004).
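All cell lines were grown in 96-well plates and treated with compound for 48 hours. GI50: concentration for 50% inhibition of growth.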 Calls of active or inactive are those of the source. No stated cut-off is given here; in the data, active = GI50 up to about 1.1 µM and inactive = higher.

Tests used:
Assay in all cases: NCI tumour cell line growth inhibition, 48 h
[1] = system: EKVX
[2] = system: HCC 2998
[3] = system: HCT-15
[4] = system: Hs-578T
[5] = system: NCI-H460
[6] = system: NCI-H522
[7] = system: OVCAR-3
[8] = system: OVCAR-8
[9] = system: PC-3
[10] = system: SF-268
[11] = system: SF-539
[12] = system: SK-MEL-28
[13] = system: SK-MEL-5
[14] = system: SN12C
[15] = system: SNB-75
[16] = system: UACC-62
[17] = system: UO-31
[18] = system: SK-MEL-2
[19] = system: T47D
[20] = system: MDA-MB-231

Row | Compound | GI50 [1] | GI50 [2] | GI50 [3] [µM] | GI50 [4] | GI50 [5] | GI50 [6] | GI50 [7] | GI50 [8] | GI50 [9] | GI50 [10] | GI50 [11] | GI50 [12] | GI50 [13] | GI50 [14] | GI50 [15] | GI50 [16] | GI50 [17] | GI50 [18] | GI50 [19] | GI50 [20]
1 | OCC1NCC(O)C(O)C1O (stereo not given) | > 100 µM (inactive) | > 100 µM (inactive) | > 100 | > 100 µM (inactive) | > 100 µM (inactive) | > 100 µM (inactive) | > 100 µM (inactive) | > 100 µM (inactive) | > 100 µM (inactive) | > 100 µM (inactive) | > 100 µM (inactive) | > 100 µM (inactive) | > 100 µM (inactive) | > 100 µM (inactive) | > 100 µM (inactive) | > 100 µM (inactive) | > 100 µM (inactive) | – | – | –
2 | Cn1c(=O)c2c(nc3n2CCCC(=O)N3CC(O)CCl)n(C)c1=O (stereo not given) | > 100 µM (inactive) | > 100 µM (inactive) | > 100 | > 100 µM (inactive) | > 100 µM (inactive) | > 100 µM (inactive) | > 100 µM (inactive) | > 100 µM (inactive) | > 100 µM (inactive) | > 100 µM (inactive) | – | > 100 µM (inactive) | > 100 µM (inactive) | > 100 µM (inactive) | > 100 µM (inactive) | > 100 µM (inactive) | > 100 µM (inactive) | > 100 µM (inactive) | > 100 µM (inactive) | –
3 | COC(=O)c1c(C(=O)OC)c2ccc(-c3ccc(Cl)cc3)nn2c1C(=O)c1ccc([N+](=O)[O-])cc1 | 27.4 µM (inactive) | > 100 µM (inactive) | 25.2 | – | > 100 µM (inactive) | 17.4 µM (inactive) | 43.5 µM (inactive) | 36.2 µM (inactive) | > 100 µM (inactive) | 44.7 µM (inactive) | 44.4 µM (inactive) | > 100 µM (inactive) | 52.1 µM (inactive) | > 100 µM (inactive) | – | > 100 µM (inactive) | 32.1 µM (inactive) | 34.8 µM (inactive) | 27.9 µM (inactive) | > 100 µM (inactive)
4 | NC1CC=C(COC(=O)C(O)(c2ccccc2)C2CC2)CC1 (stereo not given) | > 100 µM (inactive) | > 100 µM (inactive) | > 100 | – | – | > 100 µM (inactive) | > 100 µM (inactive) | > 100 µM (inactive) | > 100 µM (inactive) | > 100 µM (inactive) | > 100 µM (inactive) | > 100 µM (inactive) | > 100 µM (inactive) | > 100 µM (inactive) | > 100 µM (inactive) | > 100 µM (inactive) | > 100 µM (inactive) | – | > 100 µM (inactive) | > 100 µM (inactive)
5 | Oc1ccc(-c2nc3ccc(F)cc3s2)cc1 | 10.8 µM (inactive) | – | 18 | – | 24.1 µM (inactive) | 13.2 µM (inactive) | 30.7 µM (inactive) | 19.4 µM (inactive) | 21.4 µM (inactive) | 23.2 µM (inactive) | 17.8 µM (inactive) | – | 18 µM (inactive) | 18.4 µM (inactive) | – | 17.6 µM (inactive) | 15.2 µM (inactive) | 19.1 µM (inactive) | 15.1 µM (inactive) | 20.8 µM (inactive)
6 | C=C(C)C(=O)OC1CC2(C)OC(=CC2=O)C(C)CC2OC(=O)C(=C)C12 (stereo not given) | 7.76 µM (inactive) | 10.3 µM (inactive) | 1.65 | – | 11.9 µM (inactive) | 0.832 µM (active) | 5.15 µM (inactive) | 8.41 µM (inactive) | 14 µM (inactive) | 26.7 µM (inactive) | 3.91 µM (inactive) | 4.2 µM (inactive) | 3.52 µM (inactive) | 5.85 µM (inactive) | 20.2 µM (inactive) | 10.8 µM (inactive) | 4.9 µM (inactive) | 14.3 µM (inactive) | 4.57 µM (inactive) | 13.5 µM (inactive)
7 | Cc1ccsc1/C=N/Nc1ccc2ccccc2n1 | 20.3 µM (inactive) | 24.1 µM (inactive) | 24.8 | 37.7 µM (inactive) | – | – | 10.4 µM (inactive) | 41.4 µM (inactive) | 19.6 µM (inactive) | 32.1 µM (inactive) | – | 80.4 µM (inactive) | 3.4 µM (inactive) | > 100 µM (inactive) | 32.9 µM (inactive) | 25.1 µM (inactive) | 26.7 µM (inactive) | 25.2 µM (inactive) | > 100 µM (inactive) | –
8 | COc1ccc2c(C)cc(C)nc2n1 | > 100 µM (inactive) | > 100 µM (inactive) | > 100 | – | > 100 µM (inactive) | > 100 µM (inactive) | > 100 µM (inactive) | > 100 µM (inactive) | > 100 µM (inactive) | – | – | > 100 µM (inactive) | > 100 µM (inactive) | > 100 µM (inactive) | > 100 µM (inactive) | > 100 µM (inactive) | > 100 µM (inactive) | > 100 µM (inactive) | > 100 µM (inactive) | > 100 µM (inactive)
9 | CN(C)CCCNC(=O)c1cc(NC(=O)c2cc(NC(=O)CCCn3c4ccccc4c4ccccc43)cn2C)cn1C | 15.3 µM (inactive) | 5.52 µM (inactive) | 28.1 | 15.5 µM (inactive) | 10.1 µM (inactive) | 14.2 µM (inactive) | 13.4 µM (inactive) | 22.8 µM (inactive) | 19.2 µM (inactive) | 13.5 µM (inactive) | 20.4 µM (inactive) | 21.6 µM (inactive) | 5.81 µM (inactive) | 14.3 µM (inactive) | 14.4 µM (inactive) | – | 25.6 µM (inactive) | 24.8 µM (inactive) | 7.03 µM (inactive) | –
10 | C/C(CN1C(=O)c2ccccc2C1=O)=N\NS(=O)(=O)c1ccc(Br)cc1 | > 100 µM (inactive) | > 100 µM (inactive) | > 100 | – | > 100 µM (inactive) | > 100 µM (inactive) | > 100 µM (inactive) | > 100 µM (inactive) | – | > 100 µM (inactive) | > 100 µM (inactive) | > 100 µM (inactive) | > 100 µM (inactive) | > 100 µM (inactive) | > 100 µM (inactive) | > 100 µM (inactive) | > 100 µM (inactive) | > 100 µM (inactive) | – | –
11 | O=C(CC(C(=O)c1ccsc1)c1ccccc1)c1ccccc1 (stereo not given) | > 100 µM (inactive) | > 100 µM (inactive) | 83.9 | > 100 µM (inactive) | > 100 µM (inactive) | 34.8 µM (inactive) | > 100 µM (inactive) | > 100 µM (inactive) | – | > 100 µM (inactive) | > 100 µM (inactive) | 7.28 µM (inactive) | 43.2 µM (inactive) | > 100 µM (inactive) | > 100 µM (inactive) | 71.1 µM (inactive) | > 100 µM (inactive) | – | 20.2 µM (inactive) | –
12 | CC(C)(C)/N=C1/CC(C)(C)c2ccccc2/C(=N\c2ccccc2)S1 | 55.5 µM (inactive) | 35.2 µM (inactive) | 37.2 | – | 30.1 µM (inactive) | 15.2 µM (inactive) | 33.1 µM (inactive) | 41.8 µM (inactive) | – | 28.2 µM (inactive) | 60.4 µM (inactive) | 37.4 µM (inactive) | 24.6 µM (inactive) | 29.4 µM (inactive) | 32.5 µM (inactive) | 27 µM (inactive) | 31.8 µM (inactive) | 34.4 µM (inactive) | – | –
